Measurements: patent US20150352114A1, “MITOTIC KINESIN Eg5 INHIBITING ANTICANCER AGENTS” (THE CLEVELAND CLINIC FOUNDATION, priority 2014, published 2015)

Tested on: pCRMP2 (T514) in interphase GSCs
Experiment: CRMP2 phosphorylation immunoblot
Type: cell-based, human
Conditions: interphase GSCs treated with microtubule agents
Method: FIGS. 8(A-B) illustrate that Eg5 impacts microtubule growth through the CRMP-tubulin deposition pathway; (A) 08-387 GSCs enriched in interphase were exposed to vehicle (DMSO) or ispinesib (200 nM) and harvested for whole cell lysates every two hours over a 6 hour time course. Resulting lysates were probed for CRMP2 and pCRMP2 (T514); (B) Human brain microvascular endothelial cells (HuBrMVECs) were treated with vehicle (DMSO) or ispinesib (200 nM) and harvested for whole cell lysates every three hours over a 6 hour time course. Resulting lysates were probed for CRMP2 and pCRMP2 (T514); For all immunoblots, βactin served as a loading control. Molecular weight (MW) of resulting bands is given in kilodaltons (kD).
Protein extracts were made using a 50 mM Tris pH 8.0, […] NaCl, 0.5% NP-40 lysis solution. Resulting lysates were ran on 10% SDS-PAGE gels and transferred to Immobilon-FL PVDF (Millipore Corp., Billerica, Mass.). The membranes were blocked with 5% (wt/vol) bovine serum albumin in PBS-Tween-20 (0.2% vol/vol) and probed with primary antibodies against Eg5 (mouse, 1:4000, BD Biosciences, San Jose, Calif.), Olig2 (rabbit, 1:1000, abcam, San Francisco, Calif.), GFAP (DAKO; 1:10,000, Carpinteria, Calif.), CRMP2 (mouse, 1:1000, abgent, San Diego, Calif.), pCRMP2(T514) (rabbit, 1:1000, Cell Signaling, Beverly, Mass.), or β-actin (mouse, 1:8000, Sigma-Aldrich, St. Louis, Mo.) as a loading control. Secondary antibodies (LI-COR) were incubated in TBST+0.02% SDS and visualized with the LI-COR Odyssey near infrared imaging system (Lincoln, NB).

SMILES | CRMP2 phosphorylation at T514
COC(=O)Nc1nc2ccc(C(=O)c3cccs3)cc2[nH]1 [nocodazole] | induce CRMP2 phosphorylation at T514
CC(=O)O[C@H]1C(=O)[C@@]2(C)[C@H]([C@H](OC(=O)c3ccccc3)[C@]3(O)C[C@H](OC(=O)[C@H](O)[C@@H](NC(=O)c4ccccc4)c4ccccc4)C(C)=C1C3(C)C)[C@]1(OC(C)=O)CO[C@@H]1C[C@@H]2O [paclitaxel] | induce CRMP2 phosphorylation at T514
